Assay results from US6569878B1, “Substituted 4-amino-thiazol-2-yl compounds as cyclin-dependent kinase inhibitors” (Agouron Pharmaceuticals Inc., priority 1997, dated 2003).

Columns and labels:
[1] = target: T1, complex of human CDK4 and cyclin D3 (Homo sapiens, UniProt P11802); test: Inhibition of CDK4/cyclin D retinoblastoma kinase activity (D-type cyclin is D3); format: biochemical; conditions: superscript a: D-type cyclin is D3; apparent Ki; read-out: Ki CDK 4/D
T1 construct: made in house; host or cells: insect cells, co-infected with baculovirus
T1 sequence (P11802 whole entry): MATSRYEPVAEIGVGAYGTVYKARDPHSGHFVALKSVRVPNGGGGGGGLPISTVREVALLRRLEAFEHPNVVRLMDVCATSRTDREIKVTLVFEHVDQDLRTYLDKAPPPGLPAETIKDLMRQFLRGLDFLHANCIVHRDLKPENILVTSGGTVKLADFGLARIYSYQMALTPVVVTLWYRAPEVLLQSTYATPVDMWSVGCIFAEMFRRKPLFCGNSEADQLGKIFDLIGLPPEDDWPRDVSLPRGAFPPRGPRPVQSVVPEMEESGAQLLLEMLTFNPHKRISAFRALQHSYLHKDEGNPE
T1 sequence (P30281 whole entry partner): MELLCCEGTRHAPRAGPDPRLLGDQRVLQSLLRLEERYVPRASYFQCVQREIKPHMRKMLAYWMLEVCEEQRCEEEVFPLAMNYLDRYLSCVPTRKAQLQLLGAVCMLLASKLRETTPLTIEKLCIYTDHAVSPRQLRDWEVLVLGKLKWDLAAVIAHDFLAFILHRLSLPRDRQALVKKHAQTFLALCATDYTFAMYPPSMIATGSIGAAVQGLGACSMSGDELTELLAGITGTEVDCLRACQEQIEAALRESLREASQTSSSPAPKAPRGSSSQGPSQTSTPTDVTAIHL
In short: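 Radiometric assay: [32P]- or [33P]ATP phosphate incorporation into Rb substrate at 30°C for 20 min, stopped with EDTA, filter-captured and phosphorimaged.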

CDK2/cyclin A = target: T2, CDK2/cyclin A (Homo sapiens, UniProt P24941); test: Inhibition of CDK2/cyclin A retinoblastoma kinase activity; format: biochemical; conditions: read-out: Ki CDK 2/A
T2 construct: made in house; host or cells: CDK2: insect cells (baculovirus); cyclin A: E. coli, then limited proteolysis
In short: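 Baculovirus-expressed CDK2 with excess proteolyzed cyclin A (or purified complex), 150 nM or 5 nM, phosphorylating an Rb fragment with 25 μM [32/33P]ATP, pH 7.4, 30° C, 20 min. Filter-captured radioactivity by phosphorimager; apparent Ki from fits to competitive or tight-binding competitive inhibition using measured ATP Km.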

[2] = target: T3, human CDK1 (cdc2) and cyclin B (Homo sapiens, UniProt P06493); test: Inhibition of CDK1(cdc2)/cyclin B histone H1 kinase activity; format: biochemical; conditions: read-out: Ki CDK 1/B
T3 construct: purchased New England Biolabs (Beverly Mass.)
T3 sequence (P06493 whole entry): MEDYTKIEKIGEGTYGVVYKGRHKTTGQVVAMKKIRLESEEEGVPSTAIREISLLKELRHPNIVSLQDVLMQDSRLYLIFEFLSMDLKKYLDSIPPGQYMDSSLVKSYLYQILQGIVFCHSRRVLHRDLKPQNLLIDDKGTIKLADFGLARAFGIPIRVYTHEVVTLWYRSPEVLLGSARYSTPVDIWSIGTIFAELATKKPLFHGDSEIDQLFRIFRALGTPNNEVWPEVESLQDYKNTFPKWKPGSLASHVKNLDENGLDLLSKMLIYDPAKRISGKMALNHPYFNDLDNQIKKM
T3 sequence (P14635 whole entry partner): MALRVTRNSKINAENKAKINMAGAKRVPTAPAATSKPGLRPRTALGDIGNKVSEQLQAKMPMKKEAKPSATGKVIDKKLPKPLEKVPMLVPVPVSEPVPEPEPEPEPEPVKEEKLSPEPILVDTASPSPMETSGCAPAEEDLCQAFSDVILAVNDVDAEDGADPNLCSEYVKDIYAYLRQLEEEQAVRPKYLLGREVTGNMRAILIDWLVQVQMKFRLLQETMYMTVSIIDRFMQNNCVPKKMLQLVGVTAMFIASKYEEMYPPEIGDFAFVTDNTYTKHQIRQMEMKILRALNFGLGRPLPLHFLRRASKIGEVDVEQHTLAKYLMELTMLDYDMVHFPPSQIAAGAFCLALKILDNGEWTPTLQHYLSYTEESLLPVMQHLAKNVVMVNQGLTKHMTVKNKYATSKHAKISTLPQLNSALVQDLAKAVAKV
In short: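 CDK1/cyclin B (commercial, or CDK1/GST-cyclin B1 from co-infected insect cells) phosphorylated histone H1 with 25 μM [32/33P]ATP at pH 7.4, 30° C for 20 min, 2% DMSO. Product captured on phosphocellulose and read by phosphorimager; apparent Ki from competitive or tight-binding fits, with Km for ATP determined.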

HCT116 = test: Inhibition of cell growth, MTT assay, HCT116; format: cell-based, human; conditions: Homo sapiens, HCT-116
In short: (§1)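 Cells rested 4 h after plating, then exposed to graded compound concentrations in 0.5% (v/v) DMSO for four to six days (cell-type dependent) at 37° C, 5% CO2. Viability was read by MTT (0.2 mg/mL final, 4 h at 37° C), with DMSO-solubilized formazan measured at 540 nm.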

U2-OS = test: Inhibition of cell growth, MTT assay, U2-OS; format: cell-based; conditions: Homo sapiens, U2OS
In short: as §1

Saos-2 = test: Inhibition of cell growth, MTT assay, Saos-2; format: cell-based; conditions: Homo sapiens; Saos-2, MTT assay
In short: as §1

[3] = tested on: phosphorylation of the retinoblastoma protein (pRb) in HCT-116 cells; test: pRb immunoblotting (anti-Rb antibody); format: cell-based, human; conditions: five micromolar of each compound for 12 hours, western blot
Method: (§2) The ability of compounds to inhibit phosphorylation of the retinoblastoma protein (pRb) was assessed by western blot analysis. An anti-Rb antibody was used to measure the conversion of hyper-phosphorylated pRb to hypo-phosphorylated pRb.
(§3) Human colon tumor cells (HCT-116 cells; 5×10^6) were plated on […] dishes and allowed to grow overnight. Five micromolar of each compound was added for 12 hours. The cells were then collected and centrifuged. The cell pellets were lysed by the addition of 100 μL lysis buffer (50 mM HEPES (pH 7.0), 250 mM NaCl, 5 mM ethylenediaminetetraacetic acid, 0.1% Nonidet P-40, 1 mM dithiothreitol, 2 mM sodium pyrophosphate, 1 mM sodium orthovanadate, 1 μg/ml aprotonin, 1 μg/ml leupeptin, 50 μg/ml phenylmethylsulfonyl fluoride). Forty micrograms of protein were separated by sodium dodecyl sulfate-polyacrylamide gel electrophoresis (SDS-PAGE) on a 6% gel. The proteins were transferred to nitrocellulose and blocked with 5% blocking buffer in Tris-buffered saline overnight. The anti-Rb antibody (Pharmingen), the anti-phospho-Rb (Ser 780) antibody (MBL), and secondary antibody were incubated for 1 hour at room temperature followed by three wash steps in 0.01% Tween-20 in Tris-buffered saline. The Rb protein was detected using chemiluminescence according to the manufacturer (Amersham).

[4] = tested on: pRb phosphorylation at serine 780 in HCT-116 cells; test: pRb immunoblotting (anti-phospho-Rb (ser780) antibody); format: cell-based, human; conditions: five micromolar of each compound for 12 hours, western blot, anti-phospho-Rb (Ser 780) antibody
Method: as §2, §3

[5] = target: T4, complex of human CDK4 and genetically truncated (1-264) cyclin D3 (Homo sapiens, UniProt P11802); test: Inhibition of CDK4/cyclin D retinoblastoma kinase activity (D-type cyclin is truncated D3); format: biochemical; conditions: superscript c: D-type cyclin is truncated D3; read-out: Ki CDK 4/D
T4 construct: made in house; host or cells: insect cells, co-infected with baculovirus
T4 sequence (P11802 whole entry, the tested form may be a part): as the sequence (P11802 whole entry) above
T4 sequence (P30281 1-264 partner limits assumed): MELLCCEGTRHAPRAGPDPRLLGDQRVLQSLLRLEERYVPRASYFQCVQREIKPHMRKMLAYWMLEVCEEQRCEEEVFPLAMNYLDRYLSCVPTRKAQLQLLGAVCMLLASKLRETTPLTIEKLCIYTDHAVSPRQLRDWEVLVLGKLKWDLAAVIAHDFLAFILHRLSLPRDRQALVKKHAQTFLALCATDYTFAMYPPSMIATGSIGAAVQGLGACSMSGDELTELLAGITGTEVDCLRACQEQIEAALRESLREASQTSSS
Method: Cyclin-dependent kinase activity was measured by quantifying the enzyme-catalyzed, time-dependent incorporation of radioactive phosphate from [^32P]ATP or [^33P]ATP into a protein substrate. Unless noted otherwise, assays were performed in 96-well plates in a total volume of 50 μL, in the presence of 10 mM HEPES (N-[2-hydroxyethyl]piperazine-N′-[2-ethanesulfonic acid]) (pH 7.4), 10 mM MgCl2, 25 μM adenosine triphosphate (ATP), 1 mg/mL ovalbumin, 5 μg/mL leupeptin, 1 mM dithiothreitol, 10 mM β-glycerophosphate, 0.1 mM sodium vanadate, 1 mM sodium fluoride, 2.5 mM ethylene glycol-bis(β-aminoethyl ether)-N,N,N′N′-tetraacetic acid (EGTA), 2% (v/v) dimethylsulfoxide, and 0.03-0.4 μCi [^32/33P]ATP per reaction. Reactions were initiated with enzyme, incubated at 30° C., and terminated after 20 minutes by the addition of ethylenediaminetetraacetic acid (EDTA) to 250 mM. The phosphorylated substrate was then captured on a nitrocellulose or phosphocellulose membrane using a 96-well filtration manifold, and unincorporated radioactivity was removed by repeated washing with 0.85% phosphoric acid. Radioactivity was quantified by exposing the dried membranes to a phosphorimager.
Apparent Ki values were measured by assaying enzyme activity in the presence of different inhibitor compound concentrations and subtracting the background radioactivity measured in the absence of enzyme. The kinetic parameters (kcat, Km for ATP) were measured for each enzyme under the usual assay conditions by determining the dependence of initial rates on ATP concentration. Inhibition data were fit to an equation for competitive inhibition using Kaleidagraph (Synergy Software), or were fit to an equation for competitive tight-binding inhibition using the software KineTic (BioKin, Ltd.).
A complex of human CDK4 and cyclin D3, or a complex of cyclin D1 and a fusion protein of human CDK4 and gluathione-S-transferase (GST-CDK4), or a complex of human CDK4 and genetically truncated (1-264) cyclin D3, was purified using traditional biochemical chromatographic techniques from insect cells that had been co-infected with the corresponding baculovirus expression vectors (see e.g., Meijer and Kim, “Chemical Inhibitors of Cyclin-Dependent Kinases,” Methods in Enzymol,. vol. 283 (1997), pp. 113-128.). The enzyme complex (5 or 50 nM) was assayed with 0.3-0.5 μg of purified recombinant retinoblastoma protein fragment (Rb) as a substrate. The engineered Rb fragment (residues 386-928 of the native retinoblastoma protein; 62.3 kDa) contains the majority of the phosphorylation sites found in the native 106-kDa protein, as well as a tag of six histidine residues for ease of purification. Phosphorylated Rb substrate was captured by microfiltration on a nitrocellulose membrane and quantified using a phosphorimager as described above. For measurement of tight-binding inhibitors, the enzyme complex concentration was lowered to 5 nM, and the assay duration was extended to 60 minutes, during which the time-dependence of product formation was linear.

Structure (SMILES) | Ki [1] [nM] | Ki (CDK2/cyclin A) [nM] | Ki [2] [nM] | IC50 (HCT116) [nM] | IC90 (HCT116) [nM] | IC50 (U2-OS) [nM] | IC90 (U2-OS) [nM] | IC50 (Saos-2) [nM] | IC90 (Saos-2) [nM] | Inhibits pRb phosphorylation [3] | Inhibits pRb (ser 780) phosphorylation [4] | Ki [5] [nM]
Nc1nc(Nc2ccc(S(N)(=O)=O)cc2)sc1C(=O)c1sc(Br)cc1Br [C(73), 4-[4-Amino-5-(3,5-dibromo-thiophene-2-carbonyl)-thiazol-2-ylamino]-benzenesulfonamide] | 6.3 | 6.8 | 20 | 1400 | 3400 | 4100 | 9500 | 1300 | 5000 | + | + | 
Nc1nc(Nc2ccc(S(N)(=O)=O)cc2)sc1C(=O)c1c(F)cc(F)cc1F [C(115), 4-[4-Amino-5-(2,4,6-trifluoro-benzoyl)-thiazol-2-yl-amino]-benzenesulfonamide] | 57 | 18 | 50 |  |  | 2700 | 5000 | 800 | 2200 |  |  | 55
Cc1ccsc1C(=O)c1sc(Nc2ccc(N(C)CCN(C)C)cc2)nc1N [C(117), (4-Amino-2-{4-[(2-dimethylamino-ethyl)-methyl-amino]-phenylamino}-thiazol-5-yl)-(3-methyl-thiophen-2-yl)-methanone] |  | 423 | 417 | 1800 | 2900 | 900 | 1700 | 890 | 1500 |  |  | 10
Nc1nc(Nc2ccc(-c3ccncc3)cc2)sc1C(=O)c1c(F)cccc1F [C(122), [4-Amino-2-(4-pyridin-4-yl-phenylamino)-thiazol-5-yl]-(2,6-difluoro-phenyl)-methanone] |  | 165 |  | 1700 | 4800 | 1500 | 4700 | 3700 | 10000 |  |  | 35
C[C@@H]1CN(c2ccc(Nc3nc(N)c(C(=O)c4c(F)cccc4F)s3)cc2)CCN1C [C(124), {4-Amino-2-[4-(3R,4-dimethyl-piperazin-1-yl)-phenylamino]-thiazol-5-yl}-(2,6-difluoro-phenyl)-methanone] |  | 611 | 680 | 540 | 1600 | 1300 | 2500 | 980 | 1600 |  |  | 17
C[C@H]1CN(c2ccc(Nc3nc(N)c(C(=O)c4c(F)cccc4F)s3)cc2)CCN1C [C(125), {4-Amino-2-[4-(3S,4-dimethyl-piperazin-1-yl)-phenylamino]-thiazol-5-yl}-(2,6-difluoro-phenyl)-methanone] |  | 602 | 650 | 620 | 1800 | 1200 | 2300 | 900 | 1500 |  |  | 5.4
Nc1nc(Nc2ccc(N3CCNCC3)cc2)sc1C(=O)c1c(F)cc(F)cc1F [J(3), [4-Amino-2-(4-piperazin-1-yl-phenylamino)-thiazol-5-yl]-(2,4,6-trifluoro-phenyl)-methanone] | 15 | 572 | 2000 | 900 | 2800 | 2900 | 5200 | 2200 | 4900 |  |  | 19
CC1(C)CN(c2ccc(Nc3nc(N)c(C(=O)c4c(F)cccc4F)s3)cc2)CCN1 [J(6), {4-Amino-2-[4-(3,3-dimethyl-piperazin-1-yl)-phenylamino]-thiazol-5-yl}-(2,6-difluoro-phenyl)-methanone] |  | 548 | 511 | 260 | 600 | 510 | 1300 | 470 | 770 |  |  | 8.1
Nc1nc(Nc2ccc(N3CCN(c4ccccn4)CC3)cc2)sc1C(=O)c1c(F)cccc1F [K, {4-Amino-2-[4-(4-pyridin-2-yl-piperazin-1-yl)-phenylamino]-thiazol-5-yl}-(2,6-difluoro-phenyl)-methanone] |  | 364 |  | 3500 | 6200 | 3500 | 6000 | 6000 | 13000 |  |  | 43
NC(=O)C1CCN(c2ccc(Nc3nc(N)c(C(=O)c4c(F)cccc4F)s3)cc2)CC1 [L, {4-Amino-2-[4-(4-carboxamido-piperidin-1-yl)-phenylamino]-thiazol-5-yl}-(2,6-difluoro-phenyl)-methanone] |  |  | 193 | > 12500 |  |  |  |  |  |  |  | 22
